{"source": "patent US11214803B2", "about": "“Modulators of YAP1 expression” (Ionis Pharmaceuticals, Inc., priority 2019, dated 2022)", "system": "Yap1 mRNA", "test": "Antisense inhibition of human Yap1 in A-431 cells by cEt gapmers, single dose (Example 3, RTS36584)", "assay_type": "cell-based", "summary_of_the_method": "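A-431 cells were treated by free uptake with 2,000 nM modified oligonucleotide (3-10-3 cEt gapmers, full phosphorothioate, 5-methylcytosines) for about 48 hours. Yap1 mRNA was quantified by real-time RT-PCR, normalized to RiboGreen total RNA, and expressed as % of untreated control; asterisked values mark oligonucleotides targeting the amplicon region.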", "key": {"[1]": {"conditions": "Table 28, Yap1 mRNA as percent of untreated control, 3-10-3 cEt gapmers targeting SEQ ID NO.: 1, and 2"}, "[2]": {"conditions": "Table 10, A-431 cells, 5,000 cells per well, free uptake, 2,000 nM oligonucleotide, approx. 48 hours, primer probe set RTS36584, Yap1 mRNA normalized to RIBOGREEN, percent of untreated control"}, "[3]": {"conditions": "Table 27, Yap1 mRNA by 3-10-3 cEt gapmers targeting SEQ ID NO.: 1, and 2, percent of untreated control"}, "[4]": {"conditions": "Table 12, A-431 cells, 5,000 cells per well, free uptake, 2,000 nM modified oligonucleotide, approx. 48 hours, RTS36584, normalized to RIBOGREEN, Yap1 mRNA relative to untreated control cells"}, "[5]": {"conditions": "Table 11, A-431 cells, 5,000 cells per well, free uptake, 2,000 nM oligonucleotide, approx. 48 hours, primer probe set RTS36584, Yap1 mRNA normalized to RIBOGREEN, percent of untreated control"}, "[6]": {"conditions": "Table 26, Yap1 mRNA by 3-10-3 cEt gapmers targeting SEQ ID NO.: 1, and 2, percent of untreated control"}, "[7]": {"conditions": "Table 29, Yap1 mRNA as percent of untreated control, 3-10-3 cEt gapmers targeting SEQ ID NO.: 1, and 2"}}, "note": "Strand notation (5' to 3'): a small letter for the sugar, then the base; units joined by * are phosphorothioate-linked, units joined directly phosphodiester-linked; [ ] holds rarer units or linkages, { } end groups; capitals alone tell only the bases. k = constrained ethyl (cEt); [5mC] = 5-methylcytosine; d = 2'-deoxy (DNA)", "data": [{"substance": "1075694 (kA*k[5mC]*kA*dT*dT*dA*dA*dA*dA*dG*dT*dT*dG*kG*kG*kT; antisense) [compound 1075694]", "values": [{"measurement": "YAP1 (% UTC)", "setting": "[1]", "result": 11, "unit": "% UTC"}]}, {"substance": "958802 (antisense kA*kG*kA*dT*dA*dA*dT*d[5mC]*dA*dT*d[5mC]*d[5mC]*dT*k[5mC]*kA*kA) [Compound 958802]", "values": [{"measurement": "YAP1 (% UTC)", "setting": "[2]", "result": 25, "unit": "% UTC"}]}, {"substance": "1074637 (antisense kA*kA*kT*d[5mC]*dT*dA*dT*d[5mC]*dT*dT*d[5mC]*d[5mC]*d[5mC]*kA*kA*kG) [compound 1074637]", "values": [{"measurement": "YAP1 (% UTC)", "setting": "[3]", "result": 36, "unit": "% UTC"}]}, {"substance": "958814 (kG*kG*k[5mC]*dT*dA*dT*dG*d[5mC]*d[5mC]*dT*d[5mC]*dT*d[5mC]*kT*kT*kA; antisense) [Compound 958814]", "values": [{"measurement": "YAP1 (% UTC)", "setting": "[4]", "result": 214, "unit": "% UTC"}]}, {"substance": "958687 (antisense kA*k[5mC]*kA*d[5mC]*dT*dA*dT*dG*dT*dG*dT*dT*d[5mC]*kT*kG*k[5mC]) [Compound 958687]", "values": [{"measurement": "YAP1 (% UTC)", "setting": "[2]", "result": 57, "unit": "% UTC"}]}, {"substance": "958488 (kA*kG*kG*dA*dA*dT*dG*dG*d[5mC]*dA*dT*d[5mC]*d[5mC]*kA*kT*k[5mC]; antisense) [Compound 958488]", "values": [{"measurement": "YAP1 (% UTC)", "setting": "[5]", "result": 41, "unit": "% UTC"}]}, {"substance": "958623 (antisense kT*kT*kG*dA*dT*dA*dT*dT*d[5mC]*d[5mC]*dG*d[5mC]*dA*kT*kT*kG) [Compound 958623]", "values": [{"measurement": "YAP1 (% UTC)", "setting": "[5]", "result": 3, "unit": "% UTC"}]}, {"substance": "1074540 (kA*k[5mC]*kT*dA*dT*d[5mC]*d[5mC]*dA*d[5mC]*dA*dG*dT*dA*kA*kT*kA; antisense) [compound 1074540]", "values": [{"measurement": "YAP1 (% UTC)", "setting": "[6]", "result": 26, "unit": "% UTC"}]}, {"substance": "1076269 (kG*kA*k[5mC]*dG*dA*dA*dA*dA*dA*dT*dA*dT*dT*k[5mC]*kT*kT; antisense) [compound 1076269]", "values": [{"measurement": "YAP1 (% UTC)", "setting": "[3]", "result": 28, "unit": "% UTC"}]}, {"substance": "958482 (antisense kT*k[5mC]*kT*dG*dT*dA*dT*dT*dA*dG*d[5mC]*d[5mC]*dT*kG*kA*kA) [Compound 958482]", "values": [{"measurement": "YAP1 (% UTC)", "setting": "[2]", "result": 10, "unit": "% UTC"}]}, {"substance": "1076309 (kG*kA*kT*dA*dA*d[5mC]*dT*dT*dT*d[5mC]*d[5mC]*dA*d[5mC]*kA*kA*kT; antisense) [compound 1076309]", "values": [{"measurement": "YAP1 (% UTC)", "setting": "Table 35, Yap1 mRNA as percent of untreated control, 3-10-3 cEt gapmers targeting SEQ ID NO: 1 and 2, single dose", "result": 9, "unit": "% UTC"}]}, {"substance": "1076428 (kA*kT*kT*dA*dA*dA*dA*dA*dG*dA*dA*dG*d[5mC]*kA*k[5mC]*kG; antisense) [compound 1076428]", "values": [{"measurement": "YAP1 (% UTC)", "setting": "[6]", "result": 53, "unit": "% UTC"}]}, {"substance": "958654 (kA*kA*kT*dG*dG*dA*dG*dT*dG*dG*d[5mC]*d[5mC]*dG*kG*kG*k[5mC]; antisense) [Compound 958654]", "values": [{"measurement": "YAP1 (% UTC)", "setting": "[4]", "result": 110, "unit": "% UTC"}]}, {"substance": "1074668 (antisense kT*k[5mC]*k[5mC]*d[5mC]*dA*dA*d[5mC]*dA*dA*d[5mC]*dA*dT*dG*k[5mC]*kT*kA) [compound 1074668]", "values": [{"measurement": "YAP1 (% UTC)", "setting": "[6]", "result": 20, "unit": "% UTC"}]}, {"substance": "958754 (antisense k[5mC]*k[5mC]*kT*dT*dA*dG*dG*dA*dA*dG*dG*d[5mC]*dT*k[5mC]*k[5mC]*k[5mC]) [Compound 958754]", "values": [{"measurement": "YAP1 (% UTC)", "setting": "[4]", "result": 31, "unit": "% UTC"}]}, {"substance": "958501 (kT*kG*k[5mC]*d[5mC]*dT*dA*dG*dG*dT*dT*d[5mC]*d[5mC]*dG*kA*k[5mC]*kA; antisense) [Compound 958501]", "values": [{"measurement": "YAP1 (% UTC)", "setting": "Table 9, A-431 cells, 5,000 cells per well, free uptake, 2,000 nM, approximately 48 hours, RTS36584, normalized to RIBOGREEN, Yap1 mRNA relative to untreated control cells", "result": 41, "unit": "% UTC"}]}, {"substance": "1074382 (kA*kG*kG*dT*dA*dG*dT*d[5mC]*dT*dG*dG*dG*dA*kA*kA*k[5mC]; antisense) [compound 1074382]", "values": [{"measurement": "YAP1 (% UTC)", "setting": "[1]", "result": 8, "unit": "% UTC"}]}, {"substance": "958675 (kT*k[5mC]*k[5mC]*d[5mC]*dT*dA*dT*d[5mC]*dA*dG*d[5mC]*dT*dG*kG*kG*k[5mC]; antisense) [Compound 958675]", "values": [{"measurement": "YAP1 (% UTC)", "setting": "Table 13, A-431 cells, 5,000 cells per well, free uptake, 2,000 nM modified oligonucleotide, approx. 48 hours, RTS36584, normalized to RIBOGREEN, Yap1 mRNA relative to untreated control cells", "result": 112, "unit": "% UTC"}]}, {"substance": "1075310 (antisense kG*kT*kA*dA*dT*dT*dA*dA*dA*d[5mC]*dG*dA*dA*kA*k[5mC]*kA) [compound 1075310]", "values": [{"measurement": "YAP1 (% UTC)", "setting": "[1]", "result": 84, "unit": "% UTC"}]}, {"substance": "1074959 (antisense kT*kT*kA*dA*d[5mC]*d[5mC]*d[5mC]*dG*dG*dG*dT*dT*dT*kT*kT*kG) [compound 1074959]", "values": [{"measurement": "YAP1 (% UTC)", "setting": "[7]", "result": 128, "unit": "% UTC"}]}, {"substance": "1074701 (antisense kG*kT*kG*dT*dA*dA*dG*dA*d[5mC]*dA*dA*dG*dT*k[5mC]*kT*kT) [compound 1074701]", "values": [{"measurement": "YAP1 (% UTC)", "setting": "[3]", "result": 17, "unit": "% UTC"}]}, {"substance": "1075951 (antisense k[5mC]*kA*k[5mC]*dG*dG*dA*dA*dG*dA*dG*d[5mC]*dT*dT*kG*k[5mC]*kA) [compound 1075951]", "values": [{"measurement": "YAP1 (% UTC)", "setting": "[7]", "result": 34, "unit": "% UTC"}]}]}
